Results taken from PMC8039944, “Characterization of drug-induced human mitochondrial ADP/ATP carrier inhibition” (Theranostics, 2021).

Assays:
[1] = target: T1, human mitochondrial ADP/ATP carrier isoform 1 (hAAC1) (Homo sapiens, UniProt P12235); set-up: gene SLC25A4
T1 sequence (P12235 11-298): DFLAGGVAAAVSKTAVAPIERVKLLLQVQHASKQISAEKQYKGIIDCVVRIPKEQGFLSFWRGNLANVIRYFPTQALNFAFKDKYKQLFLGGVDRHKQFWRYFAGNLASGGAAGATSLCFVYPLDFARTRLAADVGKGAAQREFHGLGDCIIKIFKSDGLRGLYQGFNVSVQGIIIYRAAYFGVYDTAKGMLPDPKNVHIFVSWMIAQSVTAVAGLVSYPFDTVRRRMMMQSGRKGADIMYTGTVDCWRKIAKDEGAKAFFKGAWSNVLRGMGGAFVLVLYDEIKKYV

[2] = target: T1, human mitochondrial ADP/ATP carrier isoform 1 (hAAC1); test: […]-ATP uptake in proteoliposomes, dose-response; type: biochemical; set-up: gene SLC25A4; hAAC1Δ1-10, residues 11-298
[3] = target: T1, human mitochondrial ADP/ATP carrier isoform 1 (hAAC1); test: […]-ATP uptake in proteoliposomes, inhibition at […]; type: biochemical; set-up: gene SLC25A4; hAAC1Δ1-10, residues 11-298; conditions: read-out: % inhibition at 100 μM
[4] = target: T1, human mitochondrial ADP/ATP carrier isoform 1 (hAAC1); test: […]-ATP uptake in proteoliposomes, dose-response; CPM thermal shift (+[…] °C at […]); type: biochemical; set-up: gene SLC25A4; hAAC1Δ1-10, residues 11-298

SMILES: Nc1ncnc2c1ncn2[C@@H]1O[C@H](COP(=O)(O)OP(=O)(O)OP(=O)(O)O)[C@@H](O)[C@H]1O [ATP]
- Km [1]: 3.2 µM

SMILES: O=C(O)c1ccc2cc(-c3ccc(O)c(C45CC6CC(CC(C6)C4)C5)c3)ccc2c1 [CD-437]
- IC50 ([2]; read-out: IC50): 20 µM

SMILES: O=C1c2c(O)cccc2Cc2cccc(O)c21 [anthralin]
- inhibition at 100 µM [3]: 77%

SMILES: O=C(O)C[C@@H]1C(=O)O[C@H]2[C@H](OC(=O)c3cc(O)c(O)c(O)c3)[C@@H](OC(=O)c3cc(O)c(O)c4c3[C@H]1[C@H](O)C(=O)O4)[C@H](OC(=O)c1cc(O)c(O)c(O)c1)O[C@@H]2COC(=O)c1cc(O)c(O)c(O)c1 [chebulinic acid]
- IC50 [2]: 6.5 µM

SMILES: Cc1ccc(C(=O)Nc2ccc(S(=O)(=O)O)c3cc(S(=O)(=O)O)cc(S(=O)(=O)O)c23)cc1NC(=O)c1cccc(NC(=O)Nc2cccc(C(=O)Nc3cc(C(=O)Nc4ccc(S(=O)(=O)O)c5cc(S(=O)(=O)O)cc(S(=O)(=O)O)c45)ccc3C)c2)c1 [suramin]
- IC50 [4]: 2.4 µM

SMILES: CC1=C(/C=C/C(C)=C/C=C/C(C)=C/C(=O)O)C(C)(C)CCC1 [tretinoin]
- inhibition at 100 µM [3]: 59%
